Laboratory results reported in ChEMBL document CHEMBL4041492 (Eur J Med Chem, 2017).
Values belong to the molecule of their own block, whether it stands above or below them.

Legend:
[1] = organism: Rattus norvegicus; assay: Selectivity index, ratio of Ki for adenosine receptor A1 in rat brain membrane to Ki for adenosine receptor A2a in rat striatal membrane; assay type: cell membranes
[2] = target: T1, Adenosine receptor A1 (Rattus norvegicus, UniProt P25099); assay: Displacement of [3H]DPCPX from adenosine receptor A1 in rat brain membrane; assay type: cell membranes
T1 sequence (P25099 whole entry): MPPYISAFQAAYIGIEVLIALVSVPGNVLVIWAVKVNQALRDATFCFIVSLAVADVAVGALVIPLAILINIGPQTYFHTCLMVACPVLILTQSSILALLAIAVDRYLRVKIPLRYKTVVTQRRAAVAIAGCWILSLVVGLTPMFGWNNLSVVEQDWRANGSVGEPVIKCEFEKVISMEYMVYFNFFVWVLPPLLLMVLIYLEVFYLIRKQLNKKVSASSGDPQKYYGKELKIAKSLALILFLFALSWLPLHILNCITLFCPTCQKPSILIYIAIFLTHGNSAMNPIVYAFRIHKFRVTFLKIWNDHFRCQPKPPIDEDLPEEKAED

[3] = target: Adenosine receptor A2a (Rattus norvegicus, UniProt P30543); assay: Displacement of [3H]NECA from adenosine receptor A2a in rat striatial membrane; assay type: cell membranes
[4] = organism: Rattus norvegicus; assay: Selectivity index, ratio of Ki for adenosine receptor A2a in rat striatal membrane to Ki for adenosine receptor A1 in rat brain membrane; assay type: cell membranes
[5] = target: T1, Adenosine receptor A1; assay: Displacement of [3H]DPCPX from adenosine receptor A1 in rat brain membrane in presence of GTP by GTP shift assay; assay type: cell membranes
[6] = target: T2, Adenosine receptor A1 (Rattus norvegicus) (UniProt P25099); assay: Ratio of Ki for adenosine receptor A1 in rat brain membrane in presence of GTP to Ki for adenosine receptor A1 in rat brain membrane in absence of GTP; assay type: cell membranes
T2 sequence (whole entry): T1 sequence (P25099 whole entry)

[7] = Antagonist activity at adenosine receptor A2a in [3H]adenine-labeled guinea pig cerebral cortical slices assessed as inhibition of 2-chloroadenosine-stimulated [3H]-cAMP accumulation; design: species or system Cavia porcellus

Sequence of Adenosine receptor A2a (P30543 whole entry): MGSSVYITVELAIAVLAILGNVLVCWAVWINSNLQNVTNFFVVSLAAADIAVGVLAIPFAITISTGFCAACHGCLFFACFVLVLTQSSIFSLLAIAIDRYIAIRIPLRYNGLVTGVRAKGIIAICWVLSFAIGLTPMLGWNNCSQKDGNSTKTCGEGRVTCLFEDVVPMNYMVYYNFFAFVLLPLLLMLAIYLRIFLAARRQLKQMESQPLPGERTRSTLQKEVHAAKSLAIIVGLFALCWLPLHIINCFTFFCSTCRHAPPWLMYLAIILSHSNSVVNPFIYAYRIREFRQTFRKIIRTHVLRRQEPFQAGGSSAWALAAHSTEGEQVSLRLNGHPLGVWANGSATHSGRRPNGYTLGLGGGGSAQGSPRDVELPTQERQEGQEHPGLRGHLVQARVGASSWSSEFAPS

SMILES: Cn1c(=O)c2c(nc(COc3ccccc3)n2C)n(C)c1=O
Ki [5]: 4.01 µM
Ratio Ki [1]: 1.3
Ratio Ki [6]: 1.3
Ratio Ki [4]: 0.8

SMILES: Cn1c(=O)c2c(ncn2C)n(C)c1=O [CAFFEINE]
Ki [7]: 50 µM

SMILES: Cn1c(=O)c2c(nc(CCc3ccccc3)n2C)n(C)c1=O
Ratio Ki [1]: 1.2
Ratio Ki [4]: 0.9

SMILES: Cn1c(=O)c2c(nc(COc3ccc(Cl)cc3)n2C)n(C)c1=O
Ratio Ki [1]: 5.7
Ki [2]: 7.6 µM
Ki [3]: 1.33 µM
Ratio Ki [4]: 0.2

SMILES: Cn1c(=O)c2c(nc(SCc3ccc(Cl)cc3)n2C)n(C)c1=O
Ratio Ki [1]: 1.8
Ki [2]: 90 µM
Ki [3]: 51.4 µM
Ratio Ki [4]: 0.6

SMILES: Cn1c(=O)c2c(nc(SCc3ccccc3)n2C)n(C)c1=O
Ratio Ki [1]: 0.9
Ki [2]: 4.32 µM
Ki [3]: 4.64 µM
Ratio Ki [4]: 1.1

SMILES: Cn1c(=O)c2c(nc(CSc3ccccc3)n2C)n(C)c1=O
Ratio Ki [1]: 1.5
Ki [2]: 4.85 µM
Ki [3]: 3.33 µM
Ratio Ki [4]: 0.8

Further molecules by falling Ki [2], results first:

Ratio Ki [1]: 13.9
Ki [2]: 20.8 µM
Ki [3]: 1.5 µM
Ratio Ki [4]: 0.1
SMILES: Cn1c(=O)c2c(nc(CSc3ccc(Cl)cc3)n2C)n(C)c1=O

Ratio Ki [1]: 5.3
Ki [2]: 17.4 µM
Ki [3]: 3.31 µM
Ratio Ki [4]: 0.2
SMILES: Cn1c(=O)c2c(nc(OCc3ccc(Cl)cc3)n2C)n(C)c1=O

Ratio Ki [1]: 1.8
Ki [2]: 7.95 µM
Ki [3]: 4.5 µM
Ratio Ki [4]: 0.6
SMILES: Cn1c(=O)c2c(nc(NCc3ccccc3)n2C)n(C)c1=O

Ki [5]: 1.93 µM
Ratio Ki [1]: 0.4
Ki [2]: 1.52 µM
Ki [3]: 4.3 µM
Ratio Ki [6]: 1.2
Ratio Ki [4]: 2.8
SMILES: Cn1c(=O)c2c(nc(OCc3ccccc3)n2C)n(C)c1=O
